Data reported in article PMC11813896, “Bis(7)-harmine derivatives as potential multi-target anti-Alzheimer agents” (Frontiers in Chemistry, 2025).
Like-named read-outs stand apart in the source and are kept apart here.

Experiments:
BACE1 = tested on: BACE1; set-up: method as in Bolognesi et al., 2010; details: ref Bolognesi et al., 2010; read-out: IC50 for inhibiting BACE1 (bis-tacrine); cited from earlier work
BuChE = details: cited from earlier work
Aβ1-42 = details: cited from earlier work
AChE = details: cited from earlier work
Tau = tested on: Tau; set-up: method as in Boländer et al., 2012; details: ref Boländer et al., 2012; read-out: IC50 for inhibiting tau protein phosphorylation (bis-(arylvinyl)pyrazines); cited from earlier work
Aβ = tested on: Aβ; set-up: method as in Boländer et al., 2012; details: ref Boländer et al., 2012; read-out: IC50 for inhibiting Aβ aggregation (bis-(arylvinyl)pyrazines); cited from earlier work
MAO-B = tested on: MAO-B; set-up: method as in Du et al., 2023; Haider et al., 2018; details: ref Du et al., 2023; Haider et al., 2018; read-out: MAO-B (compound 6 of Figure 1); cited from earlier work
MAO-A = details: 2023, cited from earlier work
SHSY5Y cells [1] = experiment: Protection of SHSY5Y cells against damage induced by Aβ 1−42, MTT; assay type: cell-based, human; details: 1 μM, co-exposed with Aβ 1-42 for 48 h
Description: The protective effect of the test compounds against Aβ 1-42-induced damage was assessed by monitoring MTT reduction in cells co-exposed to the compound and Aβ 1-42 for 48 h (Figure 3) ([…]). The 6d, 8c, and 8d were tested at concentrations of 1, 5, and 10 μM. […] Therefore, it is imperative to elucidate the underlying mechanisms responsible for these protective effects.
The SHSY5Y cells were seeded in 96-well plates at a density of 1 × 10^4 cells per well and incubated at 37°C for 24 h. Each compound was dissolved in DMSO, followed by direct dilution in the cell culture medium to achieve final concentrations of 1 μM, 5 μM, and 10 μM. Aβ 1−42 was added to each well at a concentration of 5 μM. The cells were then further incubated at 37°C for an additional period of 48 h. Cell viability was subsequently assessed using the MTT assay protocol ([…]).

hAChE = hAChE (Homo sapiens, UniProt P22303); experiment: biochemical; details: for IC50: Mean ± SD from 3-5 assays, read-out: IC50 (nM) for cholinesterase hAChE
Description: 50 μL of hAChE (0.02 unit/mL) or hBChE (0.02 unit/mL) were incubated with 10 μL of the compound in 96-well plates at 37°C for 6 min. Subsequently, 30 μL of a substrate solution containing acetylthiocholine iodide (ATCI) or butyrylthiocholine iodide (BTCI) at a concentration of 0.01 M was added, and the mixture was further incubated at 37°C for an additional duration of 12 min.

hBuChE = hBuChE (Homo sapiens, UniProt P06276); experiment: Ellman's assay, hBuChE inhibition; assay type: biochemical; details: for inhibition at 1 µM: read-out: inhibition of hBuChE in primary screening
Description: The Ellman’s assay was utilized to assess the inhibitory potential of novel bis(7)-harmine derivatives against hAChE and hBuChE. 50 μL of hAChE (0.02 unit/mL) or hBChE (0.02 unit/mL) were incubated with 10 μL of the compound in 96-well plates at 37°C for 6 min. Subsequently, 30 μL of a substrate solution containing acetylthiocholine iodide (ATCI) or butyrylthiocholine iodide (BTCI) at a concentration of 0.01 M was added, and the mixture was further incubated at 37°C for an additional duration of 12 min. Finally, the activity was measured by adding 150 μL of a solution containing 5,5′−dithiobis (2-nitrobenzoic acid) (DTNB) at a concentration of 0.01 M, followed by measuring absorbance at a wavelength of 415 nm using an Evolution 300 PC UV-Vis Spectrophotometer.

SHSY5Y cells [2] = experiment: In vitro cytotoxicity, MTT assay; assay type: cell-based
Description: Following this incubation period, the MTT solution was substituted with […] of DMSO and further incubated at room temperature for 10 minutes to dissolve formazan crystals formed by viable cells. Sorensen Buffer ([…]) was added subsequently followed by measuring absorbance at a wavelength of 570 nm to determine cell viability based on calculated values obtained from control samples without compound treatment. This experimental procedure was repeated independently three times.

recombinant hMAO-B = molecular target: T1, recombinant hMAO-B (Homo sapiens, UniProt P27338); experiment: biochemical; details: for IC50: mean ± SD, read-out: IC50 (nM) for monoamine oxidases hMAO-B
T1 construct: purchased Sigma-Aldrich
T1 sequence (P27338 1-520): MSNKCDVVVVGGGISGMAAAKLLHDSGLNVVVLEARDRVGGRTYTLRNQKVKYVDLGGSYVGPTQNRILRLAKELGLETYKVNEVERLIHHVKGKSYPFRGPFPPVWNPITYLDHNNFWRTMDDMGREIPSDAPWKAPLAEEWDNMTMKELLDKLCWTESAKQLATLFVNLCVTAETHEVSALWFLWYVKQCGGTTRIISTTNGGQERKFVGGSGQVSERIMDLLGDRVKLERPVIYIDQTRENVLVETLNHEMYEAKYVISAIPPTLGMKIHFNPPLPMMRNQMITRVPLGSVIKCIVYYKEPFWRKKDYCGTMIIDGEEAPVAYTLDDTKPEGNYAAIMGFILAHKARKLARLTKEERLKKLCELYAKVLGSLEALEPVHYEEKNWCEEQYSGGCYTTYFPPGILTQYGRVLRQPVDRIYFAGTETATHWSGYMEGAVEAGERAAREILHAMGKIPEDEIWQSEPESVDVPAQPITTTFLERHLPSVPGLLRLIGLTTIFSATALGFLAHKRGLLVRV
Description: (§1) Briefly, the compounds under investigation and the reference inhibitor were preincubated with kynuramine at 37°C for 10 min in 96-well microplates. […] The enzymatic reactions were terminated by adding 400 μL of 2 N NaOH and 1,000 μL of water, followed by centrifugation at 16,000 g for 10 min. Subsequently, the concentrations of MAOs that produced 4-hydroxyquinoline were determined by measuring the fluorescence of the supernatant using a Varioskan Flash Multimode Reader ([…]) with excitation and emission wavelengths set at 310 nm and 400 nm, respectively. The IC50 values were calculated from dose-response curves and expressed as the mean ± standard deviation. These values were determined based on at least three independent experiments, each performed in triplicate.

recombinant hMAO-A = molecular target: T2, recombinant hMAO-A (Homo sapiens, UniProt P21397); experiment: biochemical; details: for IC50: mean ± SD, read-out: IC50 (nM) for monoamine oxidases hMAO-A
T2 construct: purchased Sigma-Aldrich
T2 sequence (P21397 1-527): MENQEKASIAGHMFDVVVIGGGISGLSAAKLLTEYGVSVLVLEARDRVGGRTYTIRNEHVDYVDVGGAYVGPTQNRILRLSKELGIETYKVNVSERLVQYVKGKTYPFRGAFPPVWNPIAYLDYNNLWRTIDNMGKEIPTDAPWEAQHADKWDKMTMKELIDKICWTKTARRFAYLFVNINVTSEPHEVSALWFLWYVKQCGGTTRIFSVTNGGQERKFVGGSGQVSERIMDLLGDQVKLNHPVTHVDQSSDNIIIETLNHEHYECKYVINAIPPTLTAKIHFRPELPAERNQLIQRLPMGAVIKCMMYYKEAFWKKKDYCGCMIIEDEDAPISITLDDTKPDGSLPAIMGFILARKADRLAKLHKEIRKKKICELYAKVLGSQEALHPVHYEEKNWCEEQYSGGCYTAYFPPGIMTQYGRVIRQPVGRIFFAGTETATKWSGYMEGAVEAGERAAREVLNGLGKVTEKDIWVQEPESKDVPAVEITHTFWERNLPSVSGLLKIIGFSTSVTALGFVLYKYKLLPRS
Description: as §1

Aβ 1−42 = Aβ 1−42 (Homo sapiens, UniProt P05067); experiment: Thioflavin T fluorescence assay, Aβ 1−42 self-aggregation; assay type: biochemical; details: Aβ 1-42 20 μM, 37°C, 24 h
Description: The thioflavin T (Th-T) fluorescence assay was used to assess the inhibition of Aβ 1−42 self-aggregation. […] Subsequently, the reaction was terminated to a final volume of 200 μL using Th-T (10 μM) solution.

GSK-3β = tested on: GSK-3β; set-up: method as in Beato et al., 2021; Li et al., 2023; details: read-out: GSK-3β (harmine, Figure 1); ref Beato et al., 2021; Li et al., 2023; cited from earlier work

Sequence of hBuChE (P06276 29-602): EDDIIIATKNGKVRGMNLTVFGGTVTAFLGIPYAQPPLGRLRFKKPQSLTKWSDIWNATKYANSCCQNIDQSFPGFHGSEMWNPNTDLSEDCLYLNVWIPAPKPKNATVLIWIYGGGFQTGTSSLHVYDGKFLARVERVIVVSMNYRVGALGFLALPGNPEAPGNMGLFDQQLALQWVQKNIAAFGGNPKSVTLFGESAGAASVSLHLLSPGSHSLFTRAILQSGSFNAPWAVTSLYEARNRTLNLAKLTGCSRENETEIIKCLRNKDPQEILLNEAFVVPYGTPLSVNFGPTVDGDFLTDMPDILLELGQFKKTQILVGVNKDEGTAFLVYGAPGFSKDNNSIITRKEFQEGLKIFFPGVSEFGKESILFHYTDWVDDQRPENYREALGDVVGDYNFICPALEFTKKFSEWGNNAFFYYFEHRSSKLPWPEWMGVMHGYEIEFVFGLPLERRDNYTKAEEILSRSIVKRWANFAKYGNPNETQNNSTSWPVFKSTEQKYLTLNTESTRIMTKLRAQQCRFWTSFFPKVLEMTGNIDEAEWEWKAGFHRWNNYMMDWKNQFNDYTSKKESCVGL
Sequence of hAChE (P22303 32-614): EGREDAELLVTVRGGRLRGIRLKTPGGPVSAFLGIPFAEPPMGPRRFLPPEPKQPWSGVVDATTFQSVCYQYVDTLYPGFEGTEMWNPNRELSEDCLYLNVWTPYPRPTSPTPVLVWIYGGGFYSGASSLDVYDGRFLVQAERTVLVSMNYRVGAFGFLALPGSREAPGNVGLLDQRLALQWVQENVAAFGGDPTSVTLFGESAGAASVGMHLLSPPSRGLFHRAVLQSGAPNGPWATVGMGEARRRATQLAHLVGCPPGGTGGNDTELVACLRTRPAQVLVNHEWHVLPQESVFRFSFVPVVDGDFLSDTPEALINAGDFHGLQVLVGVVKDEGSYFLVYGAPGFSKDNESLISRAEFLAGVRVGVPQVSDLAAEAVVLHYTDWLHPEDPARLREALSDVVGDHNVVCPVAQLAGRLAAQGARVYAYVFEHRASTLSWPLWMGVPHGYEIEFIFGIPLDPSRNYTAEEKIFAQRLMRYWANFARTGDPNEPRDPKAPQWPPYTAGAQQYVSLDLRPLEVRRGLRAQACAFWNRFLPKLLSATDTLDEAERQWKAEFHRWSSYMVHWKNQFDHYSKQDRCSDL
Sequence of Aβ 1−42 (P05067 672-713 limits assumed): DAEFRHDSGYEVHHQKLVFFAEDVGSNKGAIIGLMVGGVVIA

SMILES: c1ccc2c(NCCCCCCCNc3c4c(nc5ccccc35)CCCC4)c3c(nc2c1)CCCC3 [Compound 2, Bis-tacrine]
- IC50 (BACE1): 7.5 µM
- IC50 (BuChE; ref Bolognesi et al., 2010, read-out: IC50 for inhibiting BuChE (bis-tacrine)): 0.00566 µM
- Aβ1-42 (bis-tacrine, Figure 1) (Aβ1-42; ref Bolognesi et al., 2010): 68.0%

SMILES: COc1ccc(/C=C/c2cnc(/C=C/c3ccc(OC)cc3)cn2)cc1 [Compound 3, Bis-(arylvinyl)-pyrazines]
- IC50 (Tau): 0.013 µM
- IC50 (Aβ): 0.017 µM

SMILES: COC(=O)c1cc2c3ccccc3n(CCCCN(C)CCN(C)CCCCn3c4ccccc4c4cc(C(=O)OC)nc(C)c43)c2c(C)n1 [Compound 5, Bis-(9)-β-carboline]
- IC50 (BuChE; ref Rook et al., 2010, Zhao et al., 2018, read-out: BuChE (bis-(9)-β-carboline 5, Figure 1)): 1.5 µM
- Aβ1-42 (bis-(9)-β-carboline 5, Figure 1) (Aβ1-42; ref Rook et al., 2010, Zhao et al., 2018): 65.5%
- IC50 (AChE; ref Rook et al., 2010, Zhao et al., 2018, read-out: AChE (bis-(9)-β-carboline 5, Figure 1)): 9.6 µM

SMILES: Cc1nccc2c1[nH]c1cc(OCc3cn(Cc4ccccc4Cl)nn3)ccc12 [Compound 6]
- IC50 (MAO-B): 0.26 µM
- IC50 (MAO-A; ref Du et al., Haider et al., 2018, read-out: MAO-A (compound 6 of Figure 1)): 0.83 µM

SMILES: C=CCn1c2cc(OCCCCCCOc3ccc4c5ccnc(C)c5n(CC=C)c4c3)ccc2c2ccnc(C)c21 [Compound 6d, 1,6-bis ((9-allyl-1-methyl-9H-pyrido [3,4-b]indol-7-yl)oxy)hexane]
- cellular recovery from Aβ 1-42-induced damage (SHSY5Y cells [1]): significant cellular recovery
- S.I. Selectivity index IC50(hBuChE)/IC50(hAChE) (hAChE): 1.9
- IC50 (hAChE): 54.3 ± 3.6 nM
- IC50 (hBuChE; Mean ± SD from 3-5 assays, read-out: IC50 (nM) for cholinesterase hBuChE): 102 ± 4.6 nM
- effect on SHSY5Y cell viability (SHSY5Y cells [2]; 0.1–100 μM, 48 h incubation): no significant impact on cell viability
- IC50 (recombinant hMAO-B): 189 ± 13.6 nM
- S.I. Selectivity index IC50(hMAO-B)/IC50(hMAO-A) (recombinant hMAO-A): 0.5
- IC50 (recombinant hMAO-A): 402 ± 23.7 nM
- IC50 (Aβ 1−42): 14.1 ± 0.5 µM

SMILES: C=CCn1c2cc(OC(=O)CCCCN3CCN(Cc4ccc(C(F)(F)F)cc4)CC3)ccc2c2ccnc(C)c21 [Compound 7]
- IC50 (BuChE; ref Du et al., 2023, Haider et al., 2018, read-out: BuChE (compound 7 of Figure 1)): 0.356 µM
- IC50 (Aβ1-42; ref Du et al., 2023, Haider et al., 2018, read-out: Aβ1-42 (compound 7 of Figure 1)): 12.4 µM
- IC50 (AChE; ref Du et al., 2023, Haider et al., 2018, read-out: AChE (compound 7 of Figure 1)): 0.0484 µM

SMILES: C=CCn1c2cc(OCCCCCCCCOc3ccc4c5ccnc(C)c5n(CC=C)c4c3)ccc2c2ccnc(C)c21 [Compound 8d, 1,8-bis ((9-allyl-1-methyl-9H-pyrido [3,4-b]indol-7-yl)oxy)octane]
- cellular recovery from Aβ 1-42-induced damage (SHSY5Y cells [1]): significant cellular recovery
- S.I. Selectivity index IC50(hBuChE)/IC50(hAChE) (hAChE): >1.0
- IC50 (hAChE): 963 ± 69.5 nM
- inhibition at 1 µM (hBuChE; compound at 1 μM): 39.8%
- cytotoxicity in SHSY5Y cells (SHSY5Y cells [2]; 0.1 to 10 μM, 48 h): negligible cytotoxicity
- SHSY5Y cell viability at increased concentration (SHSY5Y cells [2]; concentration increased to 10 μM (so in the source), 48 h): evident decrease in SHSY5Y cell viability
- IC50 (recombinant hMAO-B): 335 ± 13.8 nM
- IC50 (recombinant hMAO-A): 25.7 ± 1.9 nM
- IC50 (Aβ 1−42): 9.2 ± 0.4 µM

SMILES: COc1ccc2c(c1)[nH]c1c(C)nccc12 [Harmine]
- inhibition at 1 µM (hAChE; read-out: inhibition of hAChE in primary screening): 30.9%
- inhibition at 1 µM (hBuChE): 23.5%
- IC50 (BuChE; read-out: BuChE (harmine, Figure 1), ref Beato et al., 2021, Li et al., 2023): 75.1 µM
- IC50 (MAO-A; read-out: MAO-A (harmine, Figure 1), ref Beato et al., 2021, Li et al.): 0.38 µM
- IC50 (AChE; read-out: AChE (harmine, Figure 1), ref Beato et al., 2021, Li et al., 2023): 9.05 µM
- inhibition at 1 µM (recombinant hMAO-B; read-out: inhibition of hMAO-B in primary screening): 23.5%
- IC50 (GSK-3β): 31.3 µM
